Converted amounts (≈) assume the structure as drawn. The source made the active and inactive calls. No cut-off for these calls is given here.
Columns and labels:
[1] = tested on: MCF7; experiment: Cytotoxicity against human MCF7 cell line; type: functional, cell-based
[2] = tested on: Mycobacterium tuberculosis; experiment: Antimicrobial activity against Mycobacterium tuberculosis IMCJ946.K2; type: functional
[3] = tested on: A549; experiment: Cytotoxicity against human A549 cell line; type: functional, cell-based
[4] = tested on: Mycobacterium tuberculosis; experiment: Antimicrobial activity against Mycobacterium tuberculosis H37Rv; type: functional
[5] = biological target: T1, Cell division protein FtsZ (Mycobacterium tuberculosis) (UniProt P9WN95); experiment: FtsZ inactivation in MTB cells at MIC; type: cell-based
T1 sequence (whole entry): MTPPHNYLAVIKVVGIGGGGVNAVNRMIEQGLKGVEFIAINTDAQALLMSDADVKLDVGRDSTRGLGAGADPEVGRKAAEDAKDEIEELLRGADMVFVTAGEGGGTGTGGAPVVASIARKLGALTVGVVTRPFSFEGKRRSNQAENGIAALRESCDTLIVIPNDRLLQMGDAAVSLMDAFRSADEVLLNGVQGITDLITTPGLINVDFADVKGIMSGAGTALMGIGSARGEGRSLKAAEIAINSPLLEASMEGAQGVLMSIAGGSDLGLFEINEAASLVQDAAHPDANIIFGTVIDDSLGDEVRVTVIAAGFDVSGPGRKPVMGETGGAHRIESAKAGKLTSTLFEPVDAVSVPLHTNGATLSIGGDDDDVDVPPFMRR

Row | Structure (SMILES) | IC50 [1] [µM] | MIC99 [2] [µM] | IC50 [3] [µM] | MIC99 [4] [µM] | Activity [5]
1 | CC(=O)O[C@@]12CO[C@@H]1C[C@H](O)[C@@]1(C)C(=O)[C@H](O)C3=C(C)[C@@H](OC(=O)/C=C/c4cccc5ccccc45)C[C@@](O)([C@@H](OC(=O)c4ccccc4)[C@H]21)C3(C)C | 5.4 | 5 (≈ 3.62 µg/mL) | 80 | 5 (≈ 3.62 µg/mL) | 
2 | CC(=O)O[C@@]12CO[C@@H]1C[C@H](O)[C@@]1(C)C(=O)[C@H](OC(=O)CN(C)C)C3=C(C)[C@@H](OC(=O)/C=C/c4ccc5ccccc5c4)C[C@@](O)([C@@H](OC(=O)c4ccccc4)[C@H]21)C3(C)C | 7 | 10 (≈ 8.1 µg/mL) | 10.8 | 10 (≈ 8.1 µg/mL) | 
3 | CCN(CC)CCC(=O)O[C@H]1C(=O)[C@@]2(C)[C@H]([C@H](OC(=O)c3ccccc3)[C@]3(O)C[C@H](OC(=O)/C=C/c4ccc5ccccc5c4)C(C)=C1C3(C)C)[C@]1(OC(C)=O)CO[C@@H]1C[C@@H]2O | 3.9 | 5 (≈ 4.26 µg/mL) | 9.6 | 10 (≈ 8.52 µg/mL) | 
4 | CC(=O)O[C@@]12CO[C@@H]1C[C@H](O)[C@@]1(C)C(=O)[C@H](OC(=O)N(C)C)C3=C(C)[C@@H](OC(=O)/C=C/c4ccc5ccccc5c4)C[C@@](O)([C@@H](OC(=O)c4ccccc4)[C@H]21)C3(C)C |  |  |  |  | Active
5 | CC(=O)O[C@@]1([C@@H]2/C(C)=C(/O)C(=O)C3=C(C)[C@@H](OC(=O)/C=C/c4ccc(Oc5ccccc5)cc4)C[C@@](O)([C@H]2OC(=O)c2ccccc2)C3(C)C)CO[C@@H]1CCO | > 80 | 1.25 (≈ 0.959 µg/mL) | > 80 | 2.5 (≈ 1.92 µg/mL) | 
6 | COc1ccc2cc(/C=C/C(=O)O[C@H]3C[C@@]4(O)[C@@H](OC(=O)c5ccccc5)[C@H]([C@]5(OC(C)=O)CO[C@@H]5CCO)/C(C)=C(/O)C(=O)C(=C3C)C4(C)C)ccc2c1 | > 80 | 2.5 (≈ 1.89 µg/mL) | > 80 | 2.5 (≈ 1.89 µg/mL) | 
7 | CC(=O)O[C@@]12CO[C@@H]1C[C@H](O)[C@@]1(C)C(=O)[C@H](OC(=O)/C=C/c3ccc4ccccc4c3)C3=C(C)[C@@H](O)C[C@@](O)([C@@H](OC(=O)c4ccccc4)[C@H]21)C3(C)C | 14 | 10 (≈ 7.25 µg/mL) |  | 20 (≈ 14.5 µg/mL) | 
8 | CCCCCC(=O)O[C@H]1C(=O)[C@@]2(C)[C@H]([C@H](OC(=O)c3ccccc3)[C@]3(O)C[C@H](OC(=O)[C@H](O)[C@@H](NC(=O)c4ccccc4)c4ccccc4)C(C)=C1C3(C)C)[C@]1(OC(C)=O)CO[C@@H]1C[C@@H]2O | 0.65 | 1.25 (≈ 1.14 µg/mL) | 0.65 | 5 (≈ 4.55 µg/mL) | 
9 | COc1ccc(C(=O)O[C@H]2[C@@H]3[C@]4(OC(C)=O)CO[C@@H]4C[C@H](O)[C@@]3(C)C(=O)[C@H](O)C3=C(C)[C@@H](OC(=O)/C=C/c4ccc5ccccc5c4)C[C@]2(O)C3(C)C)cc1 | 7.6 | 2.5 (≈ 1.89 µg/mL) | 14 | 5 (≈ 3.77 µg/mL) | 
10 | CC(=O)O[C@H]1C(=O)[C@@]2(C)[C@H]([C@H](OC(=O)c3ccccc3)[C@]3(O)C[C@H](OC(=O)[C@H](O)[C@@H](NC(=O)c4ccccc4)c4ccccc4)C(C)=C1C3(C)C)[C@]1(OC(C)=O)CO[C@@H]1C[C@@H]2O [PACLITAXEL] | 0.019 | 40 (≈ 34.2 µg/mL) | 0.028 | 40 (≈ 34.2 µg/mL) | 
11 | CC(=O)O[C@@]1([C@@H]2/C(C)=C(/O)C(=O)C3=C(C)[C@@H](OC(=O)/C=C/c4ccc5ccccc5c4)C[C@@](O)([C@H]2OC(=O)c2ccccc2)C3(C)C)CO[C@@H]1CCO | > 80 | 1.25 (≈ 0.906 µg/mL) | > 80 | 2.5 (≈ 1.81 µg/mL) | Active
12 | CC(=O)O[C@@]12CO[C@@H]1C[C@H](OC(=O)CN(C)C)[C@@]1(C)C(=O)[C@H](O)C3=C(C)[C@@H](OC(=O)/C=C/c4ccc5ccccc5c4)C[C@@](O)([C@@H](OC(=O)c4ccccc4)[C@H]21)C3(C)C | > 20 | 5 (≈ 4.05 µg/mL) | 4.3 | 20 (≈ 16.2 µg/mL) | 
13 | CC(=O)O[C@@]1([C@@H]2/C(C)=C(/O)C(=O)C3=C(C)[C@@H](OC(=O)/C=C/c4ccc(Sc5ccccc5)cc4)C[C@@](O)([C@H]2OC(=O)c2ccccc2)C3(C)C)CO[C@@H]1CCO | > 80 | 1.25 (≈ 0.979 µg/mL) | > 80 | 2.5 (≈ 1.96 µg/mL) | 
14 | CCN(CC)CCC(=O)O[C@H]1C[C@H]2OC[C@@]2(OC(C)=O)[C@H]2[C@H](OC(=O)c3ccccc3)[C@]3(O)C[C@H](OC(=O)/C=C/c4ccc5ccccc5c4)C(C)=C([C@@H](OC(C)=O)C(=O)[C@]12C)C3(C)C | 9.4 | 20 (≈ 17.9 µg/mL) | 17 | 10 (≈ 8.94 µg/mL) | 
15 | COc1ccc2cc(/C=C/C(=O)O[C@H]3C[C@@]4(O)[C@@H](OC(=O)c5ccccc5)[C@@H]5[C@]6(OC(C)=O)CO[C@@H]6C[C@H](O)[C@@]5(C)C(=O)[C@H](O)C(=C3C)C4(C)C)ccc2c1 | 5.3 | 5 (≈ 3.77 µg/mL) | 5 | 5 (≈ 3.77 µg/mL) | 
16 | CC(=O)O[C@@]12CO[C@@H]1C[C@H](O)[C@@]1(C)C(=O)[C@H](O)C3=C(C)[C@@H](OC(=O)/C=C/c4ccc(Sc5ccccc5)cc4)C[C@@](O)([C@@H](OC(=O)c4ccccc4)[C@H]21)C3(C)C | 3.4 | 2.5 (≈ 1.96 µg/mL) | 4.5 | 2.5 (≈ 1.96 µg/mL) | 
17 | CC(=O)O[C@@]12CO[C@@H]1C[C@H](O)[C@@]1(C)C(=O)[C@H](O)C3=C(C)[C@@H](OC(=O)/C=C/c4ccc(Oc5ccccc5)cc4)C[C@@](O)([C@@H](OC(=O)c4ccccc4)[C@H]21)C3(C)C | 9.3 | 10 (≈ 7.67 µg/mL) | 12.5 | 10 (≈ 7.67 µg/mL) | 
18 | CC(=O)O[C@@]12CO[C@@H]1C[C@H](O)[C@@]1(C)C(=O)[C@H](O)C3=C(C)[C@@H](OC(=O)/C=C/c4ccc5ccccc5c4)C[C@@](O)([C@@H](OC(=O)c4ccccc4)[C@H]21)C3(C)C | 4.5 | 2.5 (≈ 1.81 µg/mL) | 15.7 | 5 (≈ 3.62 µg/mL) | 

Reference: ChEMBL document CHEMBL1147745, “Targeting FtsZ for antituberculosis drug discovery: noncytotoxic taxanes as novel antituberculosis agents” (J Med Chem, 2006)
